The test system of experiment [1] is purified collagenase. Nature of the experiment: Time course of hydrolysis of substrate solutions by purified collagenase (Example 12). The class given is biochemical, tadpole. Conditions: for 00365 (absorbance of the organic layer at 365 nm): pH 7.5. The protocol: (§1) Purified collagenase used in Examples was prepared from cultured media of tadpole skin explants as described in Biochem. Biophs. Acta, 263 564(1972), and non-specific peptidases were prepared by subjecting 5 ml of fresh adult human serum to chromatography on a calibrated Sephadex G-200 superfine gel column equilibrated with 0.05 M Tris-HCl buffer, pH 7.5, containing 0.15 M NaCl and 5 mM CaCl2, and gathering the effluent fractions corresponding to molecular weights of 100,000-180,000.
DNP-Pro-Gln-Gly-Ile-Ala-Gly-Gln-D-Arg-OH.CH3 COOH.H2 O (4.96 mg) was neutralized with 0.1N sodium hydroxide, and dissolved in 0.05M tris-HCl buffer, pH 7.5, containing 0.15 M NaCl and 5 m MCaCl2 to make 10 ml of the substrate solution (a) having a concentration of 5×10^-4 M. The substrate solution (b) was also prepared similarly by using DNP-Gln-Gly-Ile-Ala-Gly-Gln-D-Arg-OH.CH3 COOH.H2 O (4.48 mg).
(§2) 0.9 ml Each of the substrate solutions was diluted with 0.88 ml of 0.05M tris-HCl buffer, pH 7.5, containing 0.15 M NaCl, and 5 m MCaCl2. The resulting solution was mixed with 0.02 ml of purified collagenase, and incubated. 0.2 ml Aliquots of the reaction mixture were taken out at 0, 10, 20, 40, 60 and 120 minutes, and mixed with 0.5 ml of 1M hydrochloric acid for stopping the enzyme reaction.
(§3) The DNP-peptide fragments released were extracted by vigorous shaking with 1 ml of ethyl acetate-n-butanol (1:0.15, V/V) followed by centrifugation at 3,000-5,000 rpm and room temperature for 10 minutes to separate two layers completely. The degree of hydrolysis was determined by measuring the absorbance of the organic layer at 365 nm.

In experiment [2] the test system is non-specific peptidases. Nature of the experiment: Time course of hydrolysis of substrate solution(a) by non-specific peptidase (Example 13). Type of experiment: biochemical, human. The protocol:
as §1, §2, §3
1 ml of the substrate solution(a) prepared in Example 12 was mixed with 1.0 ml of non-specific peptidase, and the resulting solution was worked up as in Example 12.

Experiment [3] relates to collagenase in synovial fluids. The experiment in a line: Hydrolysis of substrate solutions by synovial fluids from patients; collagenase activity (Example 14). The class given is biochemical, human. Conditions: for OD365/0.1 ml ohr: 0 hr; for OD365/0.1 ml 2hr: 2 hr at 37° C.; for OD365/0.1 ml increment: 2 hr minus 0 hr. The protocol: as §3
0.2 ml Each of the substrate (solutions(a) and (b) prepared in Example 12 was mixed with 0.1 ml of synovial fluids from patients with osteoarthritis and rheumatoid arthritis, and incubated for 2 hours at 37° C. After stopping the enzyme reaction by adding 0.5 ml of 1 M hydrochloric acid, the DNP-peptide fragments released were extracted by vigorous shaking with 2 ml of ethyl acetate-n-butanol (1:0.15, V/V), and worked up as in Example 12 to obtain the collagenase activities.

Experiment [4] has as its system purified collagenase. The experiment in a line: Rate of hydrolysis of DNP-peptide derivatives by purified collagenase (Example 15). Type of experiment: biochemical, tadpole. Conditions: 5×10^-4 M peptide, purified collagenase 6.2 U/ml, 37° C., pH 7.5; average of three experiments; extraction with ethyl acetate (* compounds: ethyl acetate-n-butanol 1:0.15). The protocol:
as §1
(§4) Various DNP-peptide derivatives were dissolved in 0.05 M Tris-HCl buffer, pH 7.5, containing 0.15 M NaCl, 5 mM CaCl2 and 0.02% bovine serum albumin to make a concentration of 5×10^-4 M. 0.1 ml Each of the peptide derivative solutions was mixed with an equal volume of purified collagenase (6.2 U/ml) or non-specific peptidases and incubated for various periods at 37° C. After stopping the enzyme reaction by adding 0.5 ml of 1 M HCl, the DNP-peptide fragments released were extracted by vigorous shaking with 1 ml of ethylacetate or ethyl acetate-n-butanol (1:0.15, V/V), and worked up as in Example 12.

The test system of experiment [5] is non-specific peptidases. Nature of the experiment: Rate of hydrolysis of DNP-peptide derivatives by non-specific peptidases (Example 15). Type of experiment: biochemical, human. Conditions: 5×10^-4 M peptide, 37° C., pH 7.5; average of three experiments; extraction with ethyl acetate (* compounds: ethyl acetate-n-butanol 1:0.15). The protocol: as §1, §4
Experiment [6] deals with purified collagenase. The experiment in a line: Hydrolysis of NABS-peptide by purified collagenase (Example 16). The class given is biochemical, tadpole. As to conditions: 5×10^-4 M in 20% ethanol-Tris-HCl pH 7.8, collagenase 17.4 U/ml, 60 minutes at 37° C. The protocol: as §1
NABS-Pro-Gln-Gly-Ile-Ala-Gly-Gln-D-Arg-OH was dissolved in 20% ethanol-0.05 M Tris-HCl buffer, pH 7.8, containing 0.15 M NaCl and 5 mM CaCl2 to make a concentration of 5×10^-4 M. 0.5 ml of the solution was mixed with 0.1 ml of the purified collagenase (17.4 U/ml) and incubated for 60 minutes at 37° C. After stopping the enzyme reaction by adding 0.1 ml of 5 N-hydrochloric acid, the NABS-peptide fragments released were extracted with 1 ml ethyl acetate, followed by centrifugation at 3,000-5,000 rpm and room temperature for 10 minutes. The degree of hydrolysis was determined by measuring the absorbance of the organic layer at 389 nm.

In experiment [7] the test system is purified collagenase. Nature of the experiment: Hydrolysis of PAB-peptide by purified collagenase (Example 17). Conditions: 5×10^-4 M in Tris-HCl pH 7.8, collagenase 17.4 U/ml, 60 minutes at 37° C. The class given is biochemical, tadpole. The protocol: as §1
PAS-Pro-Gln-Gly-Ile-Ala-Gly-Gln-D-Arg-OH was dissolved in 0.05 M Tris-HCl buffer, pH 7.8, containing 0.15 M NaCl and 5 mM CaCl2 to make a concentration of 5×10^-4 M. 0.1 ml of the solution was mixed with 0.1 ml of the purified collagenase (17.4 U/ml) and incubated for 60 minutes at 37° C. After stopping the enzyme reaction by adding 0.5 ml of 1 N hydrochloric acid, the PAB-peptide fragments released were extracted with 1 ml ethyl acetate after saturated with sodium chloride, and worked up as in Example 16. The degree of hydrolysis was determined by measuring the absorbance of the organic layer at 325 nm.

The mark [8] stands for this setting: synovial fluid of case five, RA.
[9] abbreviates: synovial fluid of case four, OA.
Where [10] appears, read: synovial fluid of case three, RA.

Non-standard residues stand in square brackets, D forms with d. Residues, ends and D or L forms follow the SMILES beside them. *: point of attachment. X1 = O=S(=O)(c1ccc(N=Nc2ccc(O)c3ccccc23)cc1)*; Dnp = O=[N+]([O-])c1ccc(*)c([N+](=O)[O-])c1; X2 = O=C(c1ccc(N=Nc2ccccc2)cc1)*

Regarding `CC[C@H](C)[C@H](NC(=O)CNC(=O)[C@H](CCC(N)=O)NC(=O)[C@@H]1CCCN1c1ccc([N+](=O)[O-])cc1[N+](=O)[O-])C(=O)N[C@@H](C)C(=O)NCC(=O)N[C@@H](CCC(N)=O)C(=O)N[C@H](CCCNC(=N)N)C(=O)O` [Example 1, DNP-Pro-Gln-Gly-Ile-Ala-Gly-Gln-D-Arg-OH] (Dnp-PQGIAGQ[dR]-OH), the “00365 (absorbance of the organic layer at 365 nm)” value in the experiment with purified collagenase [1] (incubation time 0 min) is given as 0.033; with purified collagenase [1] (incubation time 10 min), 0.051; with purified collagenase [1] (incubation time 20 min), 0.071; with purified collagenase [1] (incubation time 40 min), 0.112; in the experiment on purified collagenase [1] (incubation time 60 min) it was 0.140; in the experiment on purified collagenase [1] (incubation time 120 min) it was 0.217. In addition, the “00365 (absorbance of the organic layer at 365 nm)” value is 0.053 in the experiment on non-specific peptidases [2] (incubation time 0 min); 0.054 with non-specific peptidases [2] (incubation time 10 min); 0.056 with non-specific peptidases [2] (incubation time 20 min); 0.058 with non-specific peptidases [2] (incubation time 40 min); 0.060 in the experiment with non-specific peptidases [2] (incubation time 60 min); 0.063 in the experiment on non-specific peptidases [2] (incubation time 120 min). Moreover, the “increment of 00365” value in the experiment with purified collagenase [1] (incubation time 10 min) worked out at 0.018; in the experiment on purified collagenase [1] (incubation time 20 min), 0.018; with purified collagenase [1] (incubation time 40 min) it was 0.079; with purified collagenase [1] (incubation time 60 min) it was 0.107; with purified collagenase [1] (incubation time 120 min) it was 0.184; in the experiment with non-specific peptidases [2] (incubation time 10 min), 0.001. Moreover, the “increment of 00365” value was 0.002 in the experiment on non-specific peptidases [2] (incubation time 20 min), 0.004 with non-specific peptidases [2] (incubation time 40 min), 0.007 with non-specific peptidases [2] (incubation time 60 min) and 0.010 with non-specific peptidases [2] (incubation time 120 min). For the same compound, the OD365/0.1 ml ohr in experiment [3] (setting [8]) worked out at 0.045 OD365/0.1 ml; in experiment [3] (setting [9]) it was 0.042 OD365/0.1 ml; in experiment [3] (synovial fluid of case one, RA), 0.041 OD365/0.1 ml; in experiment [3] (synovial fluid of case six, OA), 0.045 OD365/0.1 ml; in experiment [3] (setting [10]), 0.049 OD365/0.1 ml; in experiment [3] (synovial fluid of case two, OA), 0.045 OD365/0.1 ml. In addition, the “OD365/0.1 ml 2hr” value amounted to 0.591 OD365/0.1 ml in experiment [3] (setting [8]); 0.045 OD365/0.1 ml in experiment [3] (setting [9]); 0.058 OD365/0.1 ml in experiment [3] (synovial fluid of case one, RA); 0.041 OD365/0.1 ml in experiment [3] (synovial fluid of case six, OA); 0.695 OD365/0.1 ml in experiment [3] (setting [10]); 0.043 OD365/0.1 ml in experiment [3] (synovial fluid of case two, OA). Further, the OD365/0.1 ml increment in experiment [3] (setting [8]) amounted to 0.546 OD365/0.1 ml; in experiment [3] (setting [9]), 0.003 OD365/0.1 ml; in experiment [3] (synovial fluid of case one, RA), 0.017 OD365/0.1 ml; in experiment [3] (synovial fluid of case six, OA), 0 OD365/0.1 ml; in experiment [3] (setting [10]), 0.646 OD365/0.1 ml. Moreover, in the experiment with purified collagenase [4], the “Rate of hydrolysis by Collagenase” value came out at 0.093 OD365/hr. Also, the “Rate of hydrolysis by non-specific peptidases” value with non-specific peptidases [5] turned out to be 0 OD365/hr.
For the compound `CC[C@H](C)[C@H](NC(=O)CNC(=O)[C@H](CCC(N)=O)NC(=O)[C@@H]1CCCN1S(=O)(=O)c1ccc(N=Nc2ccc(O)c3ccccc23)cc1)C(=O)N[C@@H](C)C(=O)NCC(=O)N[C@@H](CCC(N)=O)C(=O)N[C@H](CCCNC(=N)N)C(=O)O` [Example 2, NABS-Pro-Gln-Gly-Ile-Ala-Gly-Gln-D-Arg-OH] (X1-PQGIAGQ[dR]-OH), in the experiment on purified collagenase [6], the “degree of hydrolysis, OD389/hr/ml” value came out at 0.100 OD389/hr/ml.
`CC[C@H](C)[C@H](NC(=O)CNC(=O)[C@H](CCC(N)=O)NC(=O)[C@@H]1CCCN1C(=O)c1ccc(N=Nc2ccccc2)cc1)C(=O)N[C@@H](C)C(=O)NCC(=O)N[C@@H](CCC(N)=O)C(=O)N[C@H](CCCNC(=N)N)C(=O)O` [Example 3, PAB-Pro-Gln-Gly-Ile-Ala-Gly-Gln-D-Arg-OH] (X2-PQGIAGQ[dR]-OH): the “degree of hydrolysis, OD325/hr/ml” value with purified collagenase [7] is 1.117 OD325/hr/ml.

The record behind these values is US4176009A, “Method of measuring collagenase activity” (Ajinomoto Co., Inc., priority 1976, dated 1979).
